Tested on: (IL-1β)-induced IL-6 gene expression
Assay: (IL-1β)-induced IL-6 gene expression in chondrocytes
Assay type: cell-based, human
Settings: 10, 50, 100 μM with IL-1β, 72 hr
Description: Sixteen hours prior to a treatment, the complete culture medium was replaced with a serum-free medium. Chondrocyte alginate bead cultures were then treated with IL-1β ([…], (Calbiochem) and DHEA (0, 10, 50 or 100 μM) for 3 days.
Total RNA from chondrocytes was extracted using RNeasy Mini Kit (QIAGEN). Reverse transcription from 1 μg of total RNA was conducted using First Strand cDNA Synthesis Kit (MBI Fermentas) according to manufacturer's recommendation with random hexamers. The resulting cDNA was then amplified by polymerase chain reaction using AccuPower PCR Premix (Bioneer, Korea) in a final volume of 20 μl using three thermocycler temperatures (30 sec at […], 30 sec at 60° C., and 30 sec at […]). All reactions were determined to be in the linear range of amplification with the cycle number ranging from 14 to 30. The PCR products were analyzed by separation on a 2% agarose gel followed by ethidium bromide staining. Following electrophoresis, photographs were taken and analyzed using a densitometric program (TINA; Raytest Isotopenmeβgerate, Germany). Integrated density values for the genes in question were then normalized to the glyceraldehyde-3-phosphate dehydrogenase (GAPDH) values for a semiquantitative assessment. After normalizing with respect to GAPDH, percentage increase or decrease was determined. Each experiment was repeated at least three times. […]

With `C[C@]12CC[C@H](O)CC1=CC[C@@H]1[C@@H]2CC[C@]2(C)C(=O)CC[C@@H]12` [DHEA, dehyroepiandrosterone] the “(IL-1β)-induced IL-6 gene expression” value was “no significantly change”.

From patent US20040038950A1, “Pharmaceutical composition for treating IL-1 related diseases or disorders” (priority 2002, published 2004)
